Patent publication US10717762B2, “Abiraterone derivative and formulations thereof” (Zhuhai Beihai Biotech Co., Ltd., priority 2016, dated 2020)
Where two headings read alike, the source gives them in different places.

How the values were obtained:
[1] = Solubility in water (description); format: physicochemical; details: ABOA, white to off-white solid
[2] = cited from earlier work
[3] = target: CYP3A4 liver enzyme (Homo sapiens, UniProt P08684); details: Zytiga Full Prescribing Information, Section 7.2; cited from earlier work
Sequence of CYP3A4 liver enzyme (P08684 whole entry): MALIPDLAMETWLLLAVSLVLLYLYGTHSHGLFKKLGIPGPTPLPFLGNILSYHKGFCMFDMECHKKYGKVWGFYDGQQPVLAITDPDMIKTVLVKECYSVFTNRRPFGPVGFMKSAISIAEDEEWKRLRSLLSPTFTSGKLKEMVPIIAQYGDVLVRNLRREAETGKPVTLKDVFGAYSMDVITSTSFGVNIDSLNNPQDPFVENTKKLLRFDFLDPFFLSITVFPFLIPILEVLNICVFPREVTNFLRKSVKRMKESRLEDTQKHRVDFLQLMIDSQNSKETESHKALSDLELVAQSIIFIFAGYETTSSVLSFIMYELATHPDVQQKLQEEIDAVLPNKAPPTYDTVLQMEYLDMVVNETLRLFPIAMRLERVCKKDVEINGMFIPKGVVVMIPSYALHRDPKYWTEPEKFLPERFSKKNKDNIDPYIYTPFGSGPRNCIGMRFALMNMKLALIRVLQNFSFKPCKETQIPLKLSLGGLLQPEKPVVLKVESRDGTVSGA

[4] = product insert (Zytiga Full Prescribing Information, Section 11); cited from earlier work

Structure (SMILES)	solubility in water [1]	food-effect ([2]; depending on fat content of the meal)	administered drug excreted ([2]; oral, low bioavailability from poor absorption) [%]	CYP3A4 substrate [3]	solubility in water [4]
C[C@]12CC[C@H](OC(=O)C(=O)O)CC1=CC[C@@H]1[C@@H]2CC[C@]2(C)C(c3cccnc3)=CC[C@@H]12 [ABOA, 2-(((3S,8R,9S,10R,13S,14S)-10,13-dimethyl-17-(pyridin-3-yl)-2,3,4,7,8,9,10,11,12,13,14,15-dodecahydro-1H-cyclopenta[a]phenanthren-3-yl)oxy)-2-oxoacetic acid]	practically insoluble in water	–	–	–	–
CC(=O)O[C@H]1CC[C@@]2(C)C(=CC[C@@H]3[C@@H]2CC[C@]2(C)C(c4cccnc4)=CC[C@@H]32)C1 [abiraterone acetate]	–	five- to ten-fold	77	substrate of the CYP3A4 liver enzyme	practically insoluble in water
